Activity calls are given as the source filed them. The rule behind the calls is not given here.
Tests used:
A549 [1] = assay: Potency index, ratio of […] for cytotoxicity against human A549 cells assessed as reduction in cell viability; format: functional
A549 [2] = assay: Cytotoxicity against human A549 cells assessed as reduction in cell viability; format: functional, cell-based
HCT-116 = assay: Cytotoxicity against human HCT-116 cells assessed as reduction in cell viability; format: functional, cell-based
HeLa = assay: Cytotoxicity against human HeLa cells assessed as reduction in cell viability; format: functional, cell-based
Tubulin (Homo sapiens) [3] = biological target: T1, Tubulin (Homo sapiens) (UniProt P68371+Q9H4B7+P0DPH7+P68366+Q13509+Q71U36+P04350+Q3ZCM7+P07437+P68363+Q9BQE3+Q6PEY2+Q13885+Q9BVA1+Q9BUF5); assay: Inhibition of colchicine binding to tubulin (unknown origin) at 1 uM by fluorescence assay; format: protein-complex assay
A549 [4] = assay: Antitumor activity against human A549 cell assessed as disrupted in spheroid morphology at 0.5 to 1 uM measured after 6 days; format: functional, cell-based; conditions: dose 0.5-1 µM, time 6.0 day
[5] = Selectivity index, ratio of IC50 for cytotoxicity against human fibroblasts to IC50 for human MDA-MB-231 cells; format: toxicity, cell-based; conditions: human fibroblasts versus MDA-MB-231 cells, read-out: Selectivity Index
A549 [6] = assay: Induction of mitotic arrest in human A549 cells assessed as reduction in microtubule network with fragmented spindle poles at 0.50 uM measured after 8 hrs by DAPI/ACA staining based fluorescence microscopic analysis; format: functional, cell-based; conditions: dose 0.5 µM
[7] = Selectivity index, ratio of IC50 for cytotoxicity against human fibroblasts to IC50 for human HCT-116 cells; format: toxicity, cell-based; conditions: human fibroblasts versus HCT-116 cells, read-out: Selectivity Index
A549 [8] = assay: Cytotoxicity against human A549 cells assessed as cell death measured after 2 to 3 days; format: functional, cell-based; conditions: time 2-3 day
HFF-1 = assay: Cytotoxicity against human HFF-1 cells assessed as reduction in cell viability; format: cell-based
Tubulin (Homo sapiens) [9] = biological target: T1, Tubulin (Homo sapiens); assay: Inhibition of microtubule (unknown origin) polymerization at 5 uM; format: protein-complex assay
[10] = Selectivity index, ratio of IC50 for cytotoxicity against human fibroblasts to IC50 for human HeLa cells; format: toxicity, cell-based; conditions: human fibroblasts versus HeLa cells, read-out: Selectivity Index
Fibroblast = assay: Cytotoxicity against human fibroblasts assessed as reduction in cell viability; format: cell-based
[11] = Selectivity index, ratio of IC50 for cytotoxicity against human fibroblasts to IC50 for human A549 cells; format: toxicity, cell-based; conditions: human fibroblasts versus A549 cells, read-out: Selectivity Index
Tubulin (Homo sapiens) [12] = biological target: T1, Tubulin (Homo sapiens); assay: Inhibition of microtubule (unknown origin) polymerization at 0.6 uM; format: protein-complex assay
MDA-MB-231 = assay: Cytotoxicity against human MDA-MB-231 cells assessed as reduction in cell viability; format: functional, cell-based

Structure (SMILES)	Ratio IC50 (A549 [1])	IC50 (A549 [2]) [µM]	other results
Cc1ccc(S(=O)(=O)N2Cc3ccccc3-c3sc(Br)cc32)cc1	131.2	2.1	
COc1ccc(S(=O)(=O)N2Cc3ccccc3-c3sccc32)cc1		0.78	
CS(=O)(=O)N1Cc2ccccc2-c2sc(Br)cc21	>625	> 10	
COc1cc2c(c(OC)c1OC)-c1ccc(OC)c(=O)cc1[C@@H](NC(C)=O)CC2 [COLCHICINE]		0.016	IC50 (HCT-116): 0.022 µM; IC50 (HeLa): 0.01 µM
COC(=O)Nc1nc2cc(C(=O)c3cccs3)ccc2[nH]1			inhibition (Tubulin (Homo sapiens) [3]): Active
O=S(=O)(c1ccccc1)N1Cc2ccccc2-c2sccc21		5.2	
CC(C)(C)c1ccc(S(=O)(=O)N2Cc3ccccc3-c3sccc32)cc1		> 10	
O=S(=O)(c1ccc(C(F)(F)F)cc1)N1Cc2ccccc2-c2sccc21		> 10	
COc1ccc(S(=O)(=O)N2Cc3ccccc3-c3sc(Cl)c(C)c32)cc1	34.3	0.55	
Cc1ccc(S(=O)(=O)N2Cc3ccccc3-c3sccc32)cc1		3.4	
COc1ccc(S(=O)(=O)N2Cc3ccccc3-c3sc(Cl)cc32)cc1	36.8	0.43	
O=S(=O)(c1cccs1)N1Cc2ccccc2-c2sccc21		> 10	
COc1ccc(S(=O)(=O)N2Cc3ccccc3-c3sc(Br)c(C)c32)cc1	175	2.8	
COc1ccc(S(=O)(=O)N2Cc3ccccc3-c3sc(I)cc32)cc1	48.7	0.78	
COc1ccc(S(=O)(=O)N2Cc3ccccc3-c3sc(Br)cc32)cc1	23.1	0.37	Activity (A549 [4]): Active; selectivity ratio [5]: 5.3; Activity (A549 [6]): inactive; selectivity ratio [7]: 3.2; inhibition (Tubulin (Homo sapiens) [3]): Active; Activity (A549 [8]): Active; IC50 (HFF-1): 0.79 µM; inhibition (Tubulin (Homo sapiens) [9]): Active; IC50 (HCT-116): 0.43 µM; IC50 (HeLa): 0.43 µM; selectivity ratio [10]: 3.2; IC50 (Fibroblast): 1.4 µM; selectivity ratio [11]: 3.8; inhibition (Tubulin (Homo sapiens) [12]): Active; IC50 (MDA-MB-231): 0.26 µM
CC(C)(C)c1ccc(S(=O)(=O)N2Cc3ccccc3-c3sc(Br)cc32)cc1	>625	> 10	
O=S(=O)(c1ccc(C(F)(F)F)cc1)N1Cc2ccccc2-c2sc(Br)cc21	>625	> 10	
Cc1cccc(S(=O)(=O)N2Cc3ccccc3-c3sc(Br)cc32)c1	143.7	2.3	
Cc1cccc(S(=O)(=O)N2Cc3ccccc3-c3sccc32)c1		6	
COc1ccc(S(=O)(=O)N2Cc3ccccc3-c3scc(C)c32)cc1	39.3	0.63	
CS(=O)(=O)N1Cc2ccccc2-c2sccc21		> 10	
O=S(=O)(c1ccccc1)N1Cc2ccccc2-c2sc(Br)cc21	118.7	1.9	
CC[C@]1(O)C[C@@H]2CN(CCc3c([nH]c4ccccc34)[C@@](C(=O)OC)(c3cc4c(cc3OC)N(C)[C@H]3[C@@](O)(C(=O)OC)[C@H](OC(C)=O)[C@]5(CC)C=CCN6CC[C@]43[C@@H]65)C2)C1			inhibition (Tubulin (Homo sapiens) [3]): inactive

Source: ChEMBL document CHEMBL5029158, “Design, structure-activity relationship study and biological evaluation of the thieno[3,2-c]isoquinoline scaffold as a potential anti-cancer agent” (Bioorg Med Chem Lett, 2021)
